Reference: ChEMBL document CHEMBL4229567, “Aiming to Miss a Moving Target: Bromo and Extra Terminal Domain (BET) Selectivity in Constrained ATAD2 Inhibitors” (J Med Chem, 2018)

Key:
[1] = target: Bromodomain-containing protein 4 (Homo sapiens, UniProt O60885); experiment: Inhibition of 6His-tagged Thr-BRD4 (BD1) (1 to 477 residues) (unknown origin) expressed in Escherichia coli BL21(DE3) after 30 mins in presence of biotinylated triacetylated histone H4 peptide by alexa fluor 647 dyse based TR-FRET assay
[2] = target: T1, ATPase family AAA domain-containing protein 2 (Homo sapiens, UniProt Q6PL18); experiment: Inhibition of N-terminal FLAG-6His-tagged TEV-fused ATAD2 (981 to 1121 residues) (unknown origin) expressed in Escherichia coli BL21(DE3) after 30 mins in presence of biotinylated triacetylated histone H4 peptide by alexa fluor 488-dye based TR-FRET assay
T1 sequence (Q6PL18 whole entry): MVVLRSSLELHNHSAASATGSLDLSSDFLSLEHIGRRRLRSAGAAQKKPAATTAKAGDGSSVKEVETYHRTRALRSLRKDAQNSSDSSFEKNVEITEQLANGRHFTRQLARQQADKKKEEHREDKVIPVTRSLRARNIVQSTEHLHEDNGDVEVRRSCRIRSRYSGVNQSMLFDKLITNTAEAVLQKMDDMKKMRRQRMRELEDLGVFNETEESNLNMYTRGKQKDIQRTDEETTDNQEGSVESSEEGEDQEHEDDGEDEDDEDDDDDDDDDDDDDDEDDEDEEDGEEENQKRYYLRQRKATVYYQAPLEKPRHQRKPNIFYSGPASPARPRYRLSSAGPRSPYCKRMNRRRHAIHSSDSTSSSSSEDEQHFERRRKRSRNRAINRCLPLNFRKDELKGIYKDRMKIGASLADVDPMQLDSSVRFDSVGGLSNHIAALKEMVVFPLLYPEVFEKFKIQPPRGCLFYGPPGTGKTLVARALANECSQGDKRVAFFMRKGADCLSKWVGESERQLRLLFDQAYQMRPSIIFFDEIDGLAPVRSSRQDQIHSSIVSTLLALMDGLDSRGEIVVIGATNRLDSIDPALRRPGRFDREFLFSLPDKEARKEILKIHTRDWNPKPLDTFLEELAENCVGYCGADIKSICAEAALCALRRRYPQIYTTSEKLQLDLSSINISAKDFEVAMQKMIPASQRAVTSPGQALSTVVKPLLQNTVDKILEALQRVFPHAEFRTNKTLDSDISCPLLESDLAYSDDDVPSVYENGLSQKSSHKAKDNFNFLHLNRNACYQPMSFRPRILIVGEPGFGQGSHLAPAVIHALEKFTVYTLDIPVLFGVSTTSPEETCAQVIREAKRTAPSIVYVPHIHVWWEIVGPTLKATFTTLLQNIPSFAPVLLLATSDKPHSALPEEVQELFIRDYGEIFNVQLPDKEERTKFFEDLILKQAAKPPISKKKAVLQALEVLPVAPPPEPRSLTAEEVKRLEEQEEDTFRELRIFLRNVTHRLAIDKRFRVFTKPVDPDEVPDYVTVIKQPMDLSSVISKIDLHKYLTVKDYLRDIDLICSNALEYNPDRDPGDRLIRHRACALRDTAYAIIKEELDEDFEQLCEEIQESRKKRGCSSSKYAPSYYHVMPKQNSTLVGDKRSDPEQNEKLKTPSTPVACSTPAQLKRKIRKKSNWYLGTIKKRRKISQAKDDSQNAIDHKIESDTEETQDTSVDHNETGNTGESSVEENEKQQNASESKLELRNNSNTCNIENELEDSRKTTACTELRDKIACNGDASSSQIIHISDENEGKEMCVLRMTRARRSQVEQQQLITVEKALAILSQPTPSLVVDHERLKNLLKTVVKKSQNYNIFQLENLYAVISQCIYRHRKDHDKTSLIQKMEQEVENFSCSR

Structure (SMILES) | IC50 [1] [µM] | IC50 [2] [µM]
CO[C@@H]1CNCC[C@H]1Nc1nccc2cc(C)c(=O)[nH]c12 | 5.01 | 
Cc1cncc(-c2cnc(N[C@@H]3C[C@H]4CC[C@H](N4)[C@H]3CCC3CCOCC3)c3[nH]c(=O)c(C)cc23)c1 | 7.94 | 0.251
CO[C@H]1CNC[C@@H](OCC2CCOCC2)[C@@H]1Nc1ncc(-c2cncc(C)c2)c2cc(C)c(=O)[nH]c12 | 31.6 | 0.2
Cc1cncc(-c2cnc(N[C@@H]3C[C@H]4CC[C@H](N4)[C@H]3CCC3CCC(F)(F)CC3)c3[nH]c(=O)c(C)cc23)c1 | 5.01 | 0.1
Cc1cncc(-c2cnc(N[C@@H]3CCNC[C@H]3OCC3CCOCC3)c3[nH]c(=O)c(C)cc23)c1 | 10 | 
CO[C@H]1CNC[C@@H](OCC2CCS(=O)(=O)CC2)[C@@H]1Nc1ncc(-c2cncc(C)c2)c2cc(C)c(=O)[nH]c12 | 158 | 0.126
Cc1cc2ccnc(N[C@@H]3CCNC[C@H]3OCC3CCCCC3)c2[nH]c1=O | 3.98 | 
Cc1cncc(-c2ccc(N[C@@H]3CCNC[C@H]3OCC3CCC(F)(F)CC3)c3[nH]c(=O)c(C)cc23)c1 | 6.31 | 0.0398
Cc1cncc(-c2ccc(N[C@@H]3C[C@H]4CC[C@H](N4)[C@H]3CCC3CCS(=O)(=O)CC3)c3[nH]c(=O)c(C)cc23)c1 | 5.01 | 0.251
CO[C@H]1CNC[C@@H](OC)[C@@H]1Nc1nccc2cc(C)c(=O)[nH]c12 | 25.1 | 25.1
Cc1cncc(-c2cnc(N[C@@H]3C[C@H]4CC[C@H](N4)[C@H]3CCC3CCS(=O)(=O)CC3)c3[nH]c(=O)c(C)cc23)c1 | > 50.1 | 0.251
